For the assay, the target named is T1, recombinant human MER (Homo sapiens, UniProt Q12866).
T1 construct: purchased Invitrogen
T1 sequence (Q12866 21-999): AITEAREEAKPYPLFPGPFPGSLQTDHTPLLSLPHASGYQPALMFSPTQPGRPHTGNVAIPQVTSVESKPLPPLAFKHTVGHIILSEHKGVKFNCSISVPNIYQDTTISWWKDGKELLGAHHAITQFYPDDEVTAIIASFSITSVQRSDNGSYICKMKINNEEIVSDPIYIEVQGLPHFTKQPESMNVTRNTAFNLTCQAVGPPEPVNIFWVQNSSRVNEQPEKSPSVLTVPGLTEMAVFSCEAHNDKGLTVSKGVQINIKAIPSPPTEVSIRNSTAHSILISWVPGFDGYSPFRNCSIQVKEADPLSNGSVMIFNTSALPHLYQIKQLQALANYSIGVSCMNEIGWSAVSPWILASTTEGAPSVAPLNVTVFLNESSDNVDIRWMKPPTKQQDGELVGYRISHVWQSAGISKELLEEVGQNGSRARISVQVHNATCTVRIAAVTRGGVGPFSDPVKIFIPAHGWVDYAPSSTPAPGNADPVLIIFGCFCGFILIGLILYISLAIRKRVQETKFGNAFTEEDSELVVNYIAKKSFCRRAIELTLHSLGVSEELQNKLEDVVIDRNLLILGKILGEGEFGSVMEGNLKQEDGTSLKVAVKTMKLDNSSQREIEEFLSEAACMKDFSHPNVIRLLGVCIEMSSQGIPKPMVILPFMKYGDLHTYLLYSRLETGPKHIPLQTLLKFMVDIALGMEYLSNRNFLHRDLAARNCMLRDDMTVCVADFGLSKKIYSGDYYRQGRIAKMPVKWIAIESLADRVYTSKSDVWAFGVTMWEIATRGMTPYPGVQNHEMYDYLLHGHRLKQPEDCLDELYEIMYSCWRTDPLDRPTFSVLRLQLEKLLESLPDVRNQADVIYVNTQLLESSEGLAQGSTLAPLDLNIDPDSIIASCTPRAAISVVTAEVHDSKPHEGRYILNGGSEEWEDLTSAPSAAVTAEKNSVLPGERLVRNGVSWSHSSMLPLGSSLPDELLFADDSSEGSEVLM
Briefly: Biochemical potency, HTRF KinEASE-TK kinase assay. As to conditions: 1 nM MER, 700 μM ATP. An outline of the steps:
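HTRF 665/620 readout after a 2 h RT kinase reaction (final 700 μM ATP, 800 nM biotinylated TK substrate, 1% DMSO, HEPES pH 7.4 buffer) gave percent activity. Final enzyme was 5 nM for AXL, 1 nM for TYRO3 or MER, each preincubated 1 h with compound.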
Consider `Cn1cnnc1-c1ccc(-c2n[nH]c3ncc(-c4ccc5c(c4)CC[C@@H](N4C6COCC4C6)CC5)cc23)cc1` [Example 169, 6-[(7S)-2-{3-[4-(4-Methyl-4H-1,2,4-triazol-3-yl)phenyl]-1H-pyrazolo[3,4-b]pyridin-5-yl}-6,7,8,9-tetrahydro-5H-benzo[7]annulen-7-yl]-3-oxa-6-azabicyclo[3.1.1]heptane], for which the IC50 (usually the concentration that gives 50% inhibition) was < 100 nM. Next, `Cn1ccnc1-c1ccc(-c2n[nH]c3ncc(-c4ccc5c(c4)CC[C@@H](N4C6COCC4C6)CC5)cc23)cc1` [Example 111, 6-[(7S)-2-{3-[4-(1-Methyl-1H-imidazol-2-yl)phenyl]-1H-pyrazolo[3,4-b]pyridin-5-yl}-6,7,8,9-tetrahydro-5H-benzo[7]annulen-7-yl]-3-oxa-6-azabicyclo[3.1.1]heptane]: < 100 nM; `Cc1ccccc1-c1ccc(-c2n[nH]c3ncc(-c4ccc5c(c4)CC[C@@H](N4C6COCC4C6)CC5)cc23)nc1` [Example 98, 6-[(7S)-2-{3-[5-(2-Methylphenyl)pyridin-2-yl]-1H-pyrazolo[3,4-b]pyridin-5-yl}-6,7,8,9-tetrahydro-5H-benzo[7]annulen-7-yl]-3-oxa-6-azabicyclo[3.1.1]heptane]: > 1000 nM; `c1ccc(-n2cc(-c3n[nH]c4ncc(-c5ccc6c(c5)CC[C@@H](N5C7COCC5C7)CC6)cc34)cn2)nc1` [Example 168, 6-[(7S)-2-{3-[1-(Pyridin-2-yl)-1H-pyrazol-4-yl]-1H-pyrazolo[3,4-b]pyridin-5-yl}-6,7,8,9-tetrahydro-5H-benzo[7]annulen-7-yl]-3-oxa-6-azabicyclo[3.1.1]heptane]: 100 to 1000 nM. Next, `C[C@@H]1CCCN1[C@@]1(C)CCc2ccc(-c3cnc4[nH]cc(-c5ccc(-c6ccccn6)cc5)c4c3)cc2CC1` [Example 156, 2-(4-{5-[(7S)-7-Methyl-7-[(2R)-2-methylpyrrolidin-1-yl]-6,7,8,9-tetrahydro-5H-benzo[7]annulen-2-yl]-1H-pyrrolo[2,3-b]pyridin-3-yl}phenyl)pyridine]: 100 to 1000 nM. In the case of `O=C1OCCN1c1cccnc1-c1ccc(-c2n[nH]c3ncc(-c4ccc5c(c4)CC[C@@H](N4C6COCC4C6)CC5)cc23)cc1` [Example 121, 3-[2-(4-{5-[(7S)-7-{3-Oxa-6-azabicyclo[3.1.1]heptan-6-yl}-6,7,8,9-tetrahydro-5H-benzo[7]annulen-2-yl]-1H-pyrazolo[3,4-b]pyridin-3-yl}phenyl)pyridin-3-yl]-1,3-oxazolidin-2-one] it was < 100 nM; in that of `CC(C)(O)c1ccccc1-c1ccc(-c2c[nH]c3ncc(-c4ccc5c(c4)CC[C@@H](N4C6COCC4C6)CC5)cc23)cn1` [Example 114, 2-[2-(5-{5-[(7S)-7-{3-Oxa-6-azabicyclo[3.1.1]heptan-6-yl}-6,7,8,9-tetrahydro-5H-benzo[7]annulen-2-yl]-1H-pyrrolo[2,3-b]pyridin-3-yl}pyridin-2-yl)phenyl]propan-2-ol], 100 to 1000 nM. With `COCCOc1cccnc1-c1ccc(-c2n[nH]c3ncc(-c4ccc5c(c4)CC[C@@H](N4C6COCC4C6)CC5)cc23)cc1` [Example 180, 6-[(7S)-2-(3-{4-[3-(2-Methoxyethoxy)pyridin-2-yl]phenyl}-1H-pyrazolo[3,4-b]pyridin-5-yl)-6,7,8,9-tetrahydro-5H-benzo[7]annulen-7-yl]-3-oxa-6-azabicyclo[3.1.1]heptane], the IC50 is 100 to 1000 nM. `O=C1CCCCN1c1cccnc1-c1ccc(-c2n[nH]c3ncc(-c4ccc5c(c4)CC[C@@H](N4C6COCC4C6)CC5)cc23)cc1` [Example 127, 1-[2-(4-{5-[(7S)-7-{3-Oxa-6-azabicyclo[3.1.1]heptan-6-yl}-6,7,8,9-tetrahydro-5H-benzo[7]annulen-2-yl]-1H-pyrazolo[3,4-b]pyridin-3-yl}phenyl)pyridin-3-yl]piperidin-2-one]: the half-inhibitory concentration (IC50) is 100 to 1000 nM. On to `Cc1nccnc1-c1ccc(-c2n[nH]c3ncc(-c4ccc5c(c4)CC[C@@H](N4C6COCC4C6)CC5)cc23)cc1` [Example 175, 6-[(7S)-2-{3-[4-(3-Methylpyrazin-2-yl)phenyl]-1H-pyrazolo[3,4-b]pyridin-5-yl}-6,7,8,9-tetrahydro-5H-benzo[7]annulen-7-yl]-3-oxa-6-azabicyclo[3.1.1]heptane], for which the IC50 was in the range of 100 to 1000 nM. Next, `Cc1ccnc(-c2ccc(-c3n[nH]c4ncc(-c5ccc6c(c5)CC[C@@H](N5C7COCC5C7)CC6)cc34)cc2)c1` [Example 117, 6-[(7S)-2-{3-[4-(4-Methylpyridin-2-yl)phenyl]-1H-pyrazolo[3,4-b]pyridin-5-yl}-6,7,8,9-tetrahydro-5H-benzo[7]annulen-7-yl]-3-oxa-6-azabicyclo[3.1.1]heptane]: > 1000 nM; `CCOc1cccnc1-c1ccc(-c2n[nH]c3ncc(-c4ccc5c(c4)CC[C@@H](N4C6COCC4C6)CC5)cc23)cc1` [Example 181, 6-[(7S)-2-{3-[4-(3-Ethoxypyridin-2-yl)phenyl]-1H-pyrazolo[3,4-b]pyridin-5-yl}-6,7,8,9-tetrahydro-5H-benzo[7]annulen-7-yl]-3-oxa-6-azabicyclo[3.1.1]heptane]: 100 to 1000 nM; `Cc1cccnc1-c1ccc(-c2c[nH]c3ncc(-c4ccc5c(c4)CC[C@@H](N4CCCC4)CC5)cc23)cc1` [Example 173, 3-Methyl-2-(4-{5-[(7S)-7-(pyrrolidin-1-yl)-6,7,8,9-tetrahydro-5H-benzo[7]annulen-2-yl]-1H-pyrrolo[2,3-b]pyridin-3-yl}phenyl)pyridine]: < 100 nM.

Take `c1cnc(-c2ccc(-c3c[nH]c4ncc(-c5ccc6c(c5)CC[C@@H](N5C7COCC5C7)CC6)cc34)cc2)c(N2CCOCC2)c1` [Example 5, 6-[(7S)-2-(3-{4-[3-(Morpholin-4-yl)pyridin-2-yl]phenyl}-1H-pyrrolo[2,3-b]pyridin-5-yl)-6,7,8,9-tetrahydro-5H-benzo[7]annulen-7-yl]-3-oxa-6-azabicyclo[3.1.1]heptane]: the IC50 fell in the range of 100 to 1000 nM.

Take `CN(C)C(=O)c1ccccc1-c1ccc(-c2c[nH]c3ncc(-c4ccc5c(c4)CC[C@@H](N4C6COCC4C6)CC5)cc23)cn1` [Example 170, N,N-Dimethyl-2-(5-{5-[(7S)-7-{3-oxa-6-azabicyclo[3.1.1]heptan-6-yl}-6,7,8,9-tetrahydro-5H-benzo[7]annulen-2-yl]-1H-pyrrolo[2,3-b]pyridin-3-yl}pyridin-2-yl)benzamide]: the half-inhibitory concentration (IC50) fell in the range of 100 to 1000 nM.

As for `O=C(c1cccnc1-c1ccc(-c2c[nH]c3ncc(-c4ccc5c(c4)CC[C@@H](N4C6COCC4C6)CC5)cc23)cc1)N1CCCC1` [Example 171, 6-[(7S)-2-(3-{4-[3-(Pyrrolidine-1-carbonyl)pyridin-2-yl]phenyl}-1H-pyrrolo[2,3-b]pyridin-5-yl)-6,7,8,9-tetrahydro-5H-benzo[7]annulen-7-yl]-3-oxa-6-azabicyclo[3.1.1]heptane], the half-inhibitory concentration (IC50) fell in the range of 100 to 1000 nM. With `Cn1nncc1-c1ccc(-c2n[nH]c3ncc(-c4ccc5c(c4)CC[C@@H](N4C6COCC4C6)CC5)cc23)cc1` [Example 13, 6-[(7S)-2-{3-[4-(1-Methyl-1H-1,2,3-triazol-5-yl)phenyl]-1H-pyrazolo[3,4-b]pyridin-5-yl}-6,7,8,9-tetrahydro-5H-benzo[7]annulen-7-yl]-3-oxa-6-azabicyclo[3.1.1]heptane], the IC50 is > 1000 nM. Turning to `Cc1cccnc1-c1ccc(-c2n[nH]c3ncc(-c4ccc5c(c4)CC[C@@H](N4C6COCC4C6)CC5)cc23)nc1` [Example 26, 3-Methyl-6′-{5-[(7S)-7-{3-oxa-6-azabicyclo[3.1.1]heptan-6-yl}-6,7,8,9-tetrahydro-5H-benzo[7]annulen-2-yl]-1H-pyrazolo[3,4-b]pyridin-3-yl}-2,3′-bipyridine], the concentration for half-maximal inhibition (IC50) is 100 to 1000 nM.

For the compound `Cc1cccnc1-c1ccc(-c2n[nH]c3ncc(-c4ccc5c(c4)CC[C@@H](N4C[C@@H]6C[C@H]4CO6)CC5)cc23)cc1` [Example 130, (1S,4S)-5-[(7S)-2-{3-[4-(3-Methylpyridin-2-yl)phenyl]-1H-pyrazolo[3,4-b]pyridin-5-yl}-6,7,8,9-tetrahydro-5H-benzo[7]annulen-7-yl]-2-oxa-5-azabicyclo[2.2.1]heptane], the concentration for half-maximal inhibition (IC50) is < 100 nM.

With `Cc1cnc(-c2ccc(-c3n[nH]c4ncc(-c5ccc6c(c5)CC[C@@H](N5C7COCC5C7)CC6)cc34)cc2)c(C)c1` [Example 119, 6-[(7S)-2-{3-[4-(3,5-Dimethylpyridin-2-yl)phenyl]-1H-pyrazolo[3,4-b]pyridin-5-yl}-6,7,8,9-tetrahydro-5H-benzo[7]annulen-7-yl]-3-oxa-6-azabicyclo[3.1.1]heptane], the IC50 was < 100 nM.

Source of the values: patent US12195482B1 (Arcus Biosciences, Inc., priority 2022, dated 2025).
